Article PMC8286840, “Identifying SARS-CoV-2 antiviral compounds by screening for small molecule inhibitors of Nsp3 papain-like protease” (Biochemical Journal, 2021)
Counter-ions that a name gives are not always drawn. Like-named read-outs stand apart in the source and are kept apart here.

Legend:
[1] = molecular target: T1, SARS-CoV-2 PLpro (nsp3 1564–1878) (Severe acute respiratory syndrome coronavirus 2, UniProt P0DTD1); assay: biochemical; design: FRET-quenched peptide (Pro3) cleavage by PLpro, 10 min pre-incubation, slope over 20 min, normalised to no-compound control; conditions: high concentration screen, read-out: % of control remaining
[2] = molecular target: T1, SARS-CoV-2 PLpro (nsp3 1564–1878); assay: biochemical; design: FRET-quenched peptide (Pro3) cleavage by PLpro, 10 min pre-incubation, slope over 20 min, normalised to no-compound control; conditions: low concentration screen, read-out: % of control remaining

Structure (SMILES): C[N+](C)(C)CCCCCC[N+](C)(C)C [Hexamethonium dichloride]
- remaining activity at 3.75 µM ([1]; Well no.=656): 89.9%
- remaining activity at 1.25 µM ([2]; Well no.=656): 90.7%

Structure (SMILES): CC[C@H](c1ccc(O)cc1)[C@@H](CC)c1ccc(O)cc1 [Hexestrol]
- remaining activity at 3.75 µM ([1]; Well no.=2182): 100%
- remaining activity at 1.25 µM ([2]; Well no.=2182): 99.9%

Structure (SMILES): C[C@@H]1OC(=O)[C@H]2C[C@H]3CCCC[C@@H]3[C@@H](/C=C/[C@H]3CCC[C@H](C)N3C)[C@@H]12 [Himbacine]
- remaining activity at 3.75 µM ([1]; Well no.=3329): 98.7%
- remaining activity at 1.25 µM ([2]; Well no.=3329): 99%

Structure (SMILES): CC(C)c1cccc(=O)c(O)c1 [Hinokitiol]
- remaining activity at 3.75 µM ([1]; Well no.=3893): 103%
- remaining activity at 1.25 µM ([2]; Well no.=3893): 105%

Structure (SMILES): O=C(O)CNC(=O)c1ccccc1 [Hippuric acid]
- remaining activity at 3.75 µM ([1]; Well no.=7309): 106%
- remaining activity at 1.25 µM ([2]; Well no.=7309): 109%

Structure (SMILES): O=c1cc(O)cc(/C=C/c2ccc(O)c(O)c2)o1 [Hispidin]
- remaining activity at 3.75 µM ([1]; Well no.=754): 96.8%
- remaining activity at 1.25 µM ([2]; Well no.=754): 98.7%

Structure (SMILES): O=C1/C(=C/c2ccc(O)cc2)Oc2cc(O)ccc21 [Hispidol]
- remaining activity at 3.75 µM ([1]; Well no.=6966): 93%
- remaining activity at 1.25 µM ([2]; Well no.=6966): 95.6%

Structure (SMILES): NCCc1c[nH]cn1 [Histamine (phosphate)]
- remaining activity at 3.75 µM ([1]; Well no.=6717): 91.6%
- remaining activity at 1.25 µM ([2]; Well no.=6717): 95.8%

Structure (SMILES): NCCc1c[nH]cn1 [Histamine dihydrochloride]
- remaining activity at 3.75 µM ([1]; Well no.=564): 101%
- remaining activity at 1.25 µM ([2]; Well no.=564): 103%

Structure (SMILES): NCCc1c[nH]cn1 [Histamine]
- remaining activity at 3.75 µM ([1]; Well no.=6665): 103%
- remaining activity at 3.75 µM ([1]; Well no.=7059): 109%
- remaining activity at 1.25 µM ([2]; Well no.=6665): 105%
- remaining activity at 1.25 µM ([2]; Well no.=7059): 102%

Structure (SMILES): C[N+]1(C)[C@@H]2CC[C@H]1C[C@@H](OC(=O)C(O)c1ccccc1)C2 (stereo partly drawn) [Homatropine (methylbromide)]
- remaining activity at 3.75 µM ([1]; Well no.=7379): 96%
- remaining activity at 1.25 µM ([2]; Well no.=7379): 94.7%

Structure (SMILES): C[N+]1(C)[C@@H]2CC[C@H]1C[C@@H](OC(=O)C(O)c1ccccc1)C2 (stereo partly drawn) [Homatropine Methylbromide]
- remaining activity at 3.75 µM ([1]; Well no.=5080): 101%
- remaining activity at 1.25 µM ([2]; Well no.=5080): 98.2%

Structure (SMILES): COc1cc(/C=C/C(=O)c2ccc(O)cc2O)ccc1O [Homobutein]
- remaining activity at 3.75 µM ([1]; Well no.=3637): 102%
- remaining activity at 1.25 µM ([2]; Well no.=3637): 99.6%

Structure (SMILES): COc1cc([C@@H]2CC(=O)c3c(O)cc(O)cc3O2)ccc1O [Homoeriodictyol]
- remaining activity at 3.75 µM ([1]; Well no.=3683): 98.2%
- remaining activity at 1.25 µM ([2]; Well no.=3683): 98.7%

Structure (SMILES): O=c1cc(-c2ccc(O)c(O)c2)oc2cc(O)c([C@@H]3O[C@H](CO)[C@@H](O)[C@H](O)[C@H]3O)c(O)c12 [Homoorientin]
- remaining activity at 3.75 µM ([1]; Well no.=3291): 100%
- remaining activity at 1.25 µM ([2]; Well no.=3291): 95.6%

Structure (SMILES): COc1c(O[C@@H]2O[C@H](CO)[C@@H](O)[C@H](O)[C@H]2O)cc2oc(-c3ccc(O)cc3)cc(=O)c2c1O [Homoplantaginin]
- remaining activity at 3.75 µM ([1]; Well no.=6446): 95.8%
- remaining activity at 1.25 µM ([2]; Well no.=6446): 94.1%

Structure (SMILES): COc1cc(CC(=O)O)ccc1O [Homovanillic acid]
- remaining activity at 3.75 µM ([1]; Well no.=6831): 97%
- remaining activity at 1.25 µM ([2]; Well no.=6831): 96.9%

Structure (SMILES): C=CCc1ccc(O)c(-c2ccc(O)c(CC=C)c2)c1 [Honokiol]
- remaining activity at 3.75 µM ([1]; Well no.=3621): 93.8%
- remaining activity at 1.25 µM ([2]; Well no.=3621): 97.6%

Structure (SMILES): CN(C)CCc1ccc(O)cc1 [Hordenine sulfate]
- remaining activity at 3.75 µM ([1]; Well no.=3106): 100%
- remaining activity at 1.25 µM ([2]; Well no.=3106): 97.9%

Structure (SMILES): NNc1nncc2ccccc12 [Hydralazine hydrochloride]
- remaining activity at 3.75 µM ([1]; Well no.=560): 95.5%
- remaining activity at 1.25 µM ([2]; Well no.=560): 95.6%

Structure (SMILES): NS(=O)(=O)c1cc2c(cc1Cl)NCNS2(=O)=O [Hydrochlorothiazide]
- remaining activity at 3.75 µM ([1]; Well no.=658): 98.6%
- remaining activity at 1.25 µM ([2]; Well no.=658): 100%

Structure (SMILES): O=C(O)CCc1ccccc1 [Hydrocinnamic acid]
- remaining activity at 3.75 µM ([1]; Well no.=6731): 96.7%
- remaining activity at 1.25 µM ([2]; Well no.=6731): 98.5%

Structure (SMILES): CC(=O)OCC(=O)[C@@]1(O)CC[C@H]2[C@@H]3CCC4=CC(=O)CC[C@]4(C)[C@H]3[C@@H](O)C[C@@]21C [Hydrocortisone 21-acetate]
- remaining activity at 3.75 µM ([1]; Well no.=2214): 101%
- remaining activity at 1.25 µM ([2]; Well no.=2214): 100%

Structure (SMILES): C[C@]12CCC(=O)C=C1CC[C@@H]1[C@@H]2[C@@H](O)C[C@@]2(C)[C@H]1CC[C@]2(O)C(=O)COC(=O)CCC(=O)O [Hydrocortisone 21-hemisuccinate sodium salt]
- remaining activity at 3.75 µM ([1]; Well no.=5653): 102%
- remaining activity at 1.25 µM ([2]; Well no.=5653): 99%

Structure (SMILES): C[C@]12CCC(=O)C=C1CC[C@@H]1[C@@H]2[C@@H](O)C[C@@]2(C)[C@H]1CC[C@]2(O)C(=O)COC(=O)CCC(=O)O [Hydrocortisone 21-hemisuccinate sodium]
- remaining activity at 3.75 µM ([1]; Well no.=704): 93.3%
- remaining activity at 1.25 µM ([2]; Well no.=704): 92.7%

Structure (SMILES): CC(=O)OCC(=O)[C@@]1(O)CC[C@H]2[C@@H]3CCC4=CC(=O)CC[C@]4(C)[C@H]3[C@@H](O)C[C@@]21C [Hydrocortisone (acetate)]
- remaining activity at 3.75 µM ([1]; Well no.=7342): 109%
- remaining activity at 1.25 µM ([2]; Well no.=7342): 105%

Structure (SMILES): CCCC(=O)O[C@]1(C(=O)CO)CC[C@H]2[C@@H]3CCC4=CC(=O)CC[C@]4(C)[C@H]3[C@@H](O)C[C@@]21C [Hydrocortisone butyrate]
- remaining activity at 3.75 µM ([1]; Well no.=5418): 98.8%
- remaining activity at 1.25 µM ([2]; Well no.=5418): 94.8%

Structure (SMILES): C[C@]12CCC(=O)C=C1CC[C@@H]1[C@@H]2[C@@H](O)C[C@@]2(C)[C@H]1CC[C@]2(O)C(=O)CO [Hydrocortisone]
- remaining activity at 3.75 µM ([1]; Well no.=562): 101%
- remaining activity at 3.75 µM ([1]; Well no.=2212): 96%
- remaining activity at 3.75 µM ([1]; Well no.=6439): 102%
- remaining activity at 3.75 µM ([1]; Well no.=7331): 93.7%
- remaining activity at 1.25 µM ([2]; Well no.=562): 101%
- remaining activity at 1.25 µM ([2]; Well no.=2212): 93%
- remaining activity at 1.25 µM ([2]; Well no.=6439): 99.3%
- remaining activity at 1.25 µM ([2]; Well no.=7331): 93.2%

Structure (SMILES): COc1c2c(cc3c1OCO3)CCN(C)C2 [Hydrocotarnine HBr]
- remaining activity at 3.75 µM ([1]; Well no.=3462): 103%
- remaining activity at 1.25 µM ([2]; Well no.=3462): 102%

Structure (SMILES): Oc1ccc(O)cc1 [Hydroquinone]
- remaining activity at 3.75 µM ([1]; Well no.=472): 99.1%
- remaining activity at 3.75 µM ([1]; Well no.=3849): 106%
- remaining activity at 1.25 µM ([2]; Well no.=472): 102%
- remaining activity at 1.25 µM ([2]; Well no.=3849): 105%

Structure (SMILES): Nc1c2c(nc3ccccc13)CCCC2O (stereo not drawn) [Hydroxytacrine maleate]
- remaining activity at 3.75 µM ([1]; Well no.=514): 101%
- remaining activity at 1.25 µM ([2]; Well no.=514): 102%

Structure (SMILES): Nc1c2c(nc3ccccc13)CCCC2O (stereo not drawn) [Hydroxytacrine]
- remaining activity at 3.75 µM ([1]; Well no.=1671): 103%
- remaining activity at 1.25 µM ([2]; Well no.=1671): 103%

Structure (SMILES): NC(=O)NO [Hydroxyurea]
- remaining activity at 3.75 µM ([1]; Well no.=566): 96.1%
- remaining activity at 3.75 µM ([1]; Well no.=6544): 100%
- remaining activity at 1.25 µM ([2]; Well no.=566): 97.4%
- remaining activity at 1.25 µM ([2]; Well no.=6544): 103%
